Article PMC11121064 (International Journal of Molecular Sciences, 2024)

Tests used:
[1] = test system: human BJ fibroblast cell line; assay: MTT reduction assay, BJ fibroblasts; format: cell-based; conditions: 72 h
Method: (§1) The cytotoxic activity was measured against the melanoma A375 tumor cell line (ECACC) and the human BJ fibroblast cell line (ATCC) using an MTT reduction assay. The selectivity index (SI) was calculated using the following formula: SI = IC50 (BJ)/ IC50 (A375).
The A375 cell line was purchased from the European Collection of Authenticated Cell Cultures (ECACC, Salisbury, UK) and the BJ human fibroblast cell line from the American Type Culture Collection (ATCC, Manassas, VA, USA). All the cell lines were grown as a monolayer in standard conditions: 37 °C, 100% humidity, under an atmosphere of 5% CO2. The A375 cells were cultured in Dulbecco’s Modified Eagle Medium supplemented with 15% fetal calf serum and 50 IU/mL penicillin/streptomycin. The BJ cell line was grown in EMEM with EBSS, NEAA and sodium pyruvate with L-Glutamine supplemented, 10% fetal bovine serum and 50 IU/mL penicillin/streptomycin.
(§2) Next, the cells were seeded in 96-well plates at a density of 5000 cells per well and incubated overnight to reach the logarithmic growth phase. […] After 72 h, 10 µL of MTT solution (5 g/L) was added into each well and incubated for an additional four hours. Subsequently, the medium was removed, and 100 µL of dimethyl sulfoxide (DMSO) was added into each well. The absorbance was then measured at 570 nm using a SPECTROstar Nano microplate reader (BMG Biotech Inc., Cary, NC, USA)/Tecan Spark 10M. The mean value from three independent BJ and A375 cell cultures was taken to calculate the cell viability, expressed as a percentage of the control values, i.e., untreated cells assumed as 100%.

[2] = test system: melanoma A375 tumor cell line; assay: MTT reduction assay, A375 melanoma cells; format: cell-based, human; conditions: for IC50: MTT, 72 h; for effect on A375 cell viability: 72 h of exposure
Method: as §1
The A375 cell line was purchased from the European Collection of Authenticated Cell Cultures (ECACC, Salisbury, UK) and the BJ human fibroblast cell line from the American Type Culture Collection (ATCC, Manassas, VA, USA). All the cell lines were grown as a monolayer in standard conditions: 37 °C, 100% humidity, under an atmosphere of 5% CO2. […] The BJ cell line was grown in EMEM with EBSS, NEAA and sodium pyruvate with L-Glutamine supplemented, 10% fetal bovine serum and 50 IU/mL penicillin/streptomycin.
as §2

[3] = test system: clot formation and fibrinolysis in human citrate plasma; assay: Clot formation and fibrinolysis test (CL-test); conditions: for CLAUC overall potential for clot formation and fibrinolysis / Fmax maximum clotting / Fvo initial plasma clotting velocity / Lmax maximum lysis / Lvo initial clot fibrinolysis velocity / Sc area under the curve of stable clot formation / Sf area under the fibrinolysis curve / Sr area under the clot formation curve / Tc clot stabilization time / Tf plasma clotting time / Tl fibrinolysis time / Tt thrombin time: mean, n = 3
Method: Following this, the impact of the tested complex compounds and their ligands on the overall clot formation and fibrinolysis potential (CLAUC) and individual kinetic parameters was assessed using the CL-test. The analysis was performed using plasma from three different donors.
The blood samples used were residual materials from routine diagnostic studies, destined for disposal as medical waste. […] Platelet-poor plasma (PPP) and red blood cells were obtained using centrifugation at 3000× g for 10 min at room temperature using a Mikro 22R centrifuge (Hettich Zentrifugen, Tuttlingen, Germany). The plasma was used for the hemostasis tests. Before use, the centrifuged erythrocyte mass was washed three times with physiological saline solution to remove the plasma protein residues and other blood cells.
The influence of the compounds on the overall hemostasis potential was determined using the CL-test through continuous measurement of changes in optical transmittance, as described previously [53, 54]. The experiments were conducted using three-fold diluted human citrate plasma, t-PA and thrombin. […] The results are presented as means ± SD (n = 3). The curves were used to determine the kinetic parameters of clot formation, stabilization and fibrinolysis using dedicated software [51]. The following parameters of clot formation were determined: Tt—thrombin time (s), Fmax—maximum clotting (%T), Tf—plasma clotting time (s), Fvo—initial plasma clotting velocity (%T/min), Sr—area under the clot formation curve (%Txmin). The parameters of the clot stabilization phase comprised Tc—clot stabilization time (s) and Sc—area under the curve of stable clot formation (%Txmin). The parameters of fibrinolysis comprised Lmax—maximum lysis (%T), Tl—fibrinolysis time (s), Lvo—initial clot fibrinolysis velocity (%T/min) and Sf—area under the fibrinolysis curve (%Txmin). Additionally, the overall potential for clot formation and fibrinolysis, i.e., CLAUC (%Txmin), was also estimated.

[4] = test system: extrinsic coagulation pathway; assay: Prothrombin time (PT) and INR in human citrated plasma; conditions: up to 100 µmol/L; reference PT 9.7–14.6 s, INR 0.8–1.2
Method: The first stage assessed the changes in plasma hemostasis occurring under the influence of the five test compounds. Plasma was incubated with the tested compounds and ligands at six different concentrations ranging from 0.5 to 100 µmol/L. The plasma was obtained from five different volunteers. To evaluate the impact on the extrinsic coagulation pathway, the prothrombin time (PT) was determined in human citrated plasma, expressed in seconds and as the international normalized ratio (INR) (Figure 6 and Figure 7).
The plasma was used for the hemostasis tests.
The results are presented as means ± standard deviation (SD).

Question: How did the IC50 [1] turn out when Clc1ccc(COC(Cn2ccnc2)c2ccc(Cl)cc2Cl)c(Cl)c1.Clc1ccc(COC(Cn2ccnc2)c2ccc(Cl)cc2Cl)c(Cl)c1.[Ag+].[F][Sb-]([F])([F])([F])([F])[F] (stereo not drawn) [[Ag(MCZ)2SbF6]] was run?
Answer: 16 ± 0.9 µM

Question: What about the IC50 [2] of the same compound?
Answer: 18.5 ± 2.4 µM

Question: What does the source list for Cc1ncc([N+](=O)[O-])n1CCO [MTZ, metronidazole]?
Answer: IC50 ([1]; Homo sapiens, Fibroblast): > 100 µM; IC50 ([2]; Homo sapiens, A-375): > 100 µM; effect on CLAUC and kinetic parameters of clot formation and lysis ([3]; entire concentration range 0.5–100 µmol/L): no significant differences

Question: Which results are given for N.N.[Cl][Pt][Cl] [Cisplatin, cisplatin]?
Answer: IC50 [1]: 24 ± 0.8 µM; effect on A375 cell viability [2]: dose-dependent cytotoxic effect; IC50 [2]: 8.5 ± 0.3 µM

Question: What does the source list for Cc1ncc([N+](=O)[O-])n1CCO.Cc1ncc([N+](=O)[O-])n1CCO.O=[N+]([O-])[O-].[Ag+] [[(MTZ)2AgNO3]]?
Answer: IC50 [1]: 46 ± 1.6 µM; IC50 [2]: 3 ± 0.3 µM; prolongation of PT and INR beyond the reference range [4]: do not cause pathological prolongation; CLAUC overall potential for clot formation and fibrinolysis ([3]; 0.5 µmol/L): 287.9 %*min; Fmax maximum clotting ([3]; 0.5 µmol/L): 64.4%; Fvo initial plasma clotting velocity ([3]; 0.5 µmol/L): 126.7 %/min; Lmax maximum lysis ([3]; 0.5 µmol/L): 61.9%; Lvo initial clot fibrinolysis velocity ([3]; 0.5 µmol/L): 20.9 %/min; Sc area under the curve of stable clot formation ([3]; 0.5 µmol/L): 118.4 %*min; Sf area under the fibrinolysis curve ([3]; 0.5 µmol/L): 125.5 %*min; Sr area under the clot formation curve ([3]; 0.5 µmol/L): 44.1 %*min; Tc clot stabilization time ([3]; 0.5 µmol/L): 114.3 s; Tf plasma clotting time ([3]; 0.5 µmol/L): 61.9 s; Tl fibrinolysis time ([3]; 0.5 µmol/L): 158.7 s; Tt thrombin time ([3]; 0.5 µmol/L): 21.3 s; CLAUC overall potential for clot formation and fibrinolysis ([3]; 1.0 µmol/L): 275.7 %*min; Fmax maximum clotting ([3]; 1.0 µmol/L): 62.2%; Fvo initial plasma clotting velocity ([3]; 1.0 µmol/L): 126.3 %/min; Lmax maximum lysis ([3]; 1.0 µmol/L): 61.5%; Lvo initial clot fibrinolysis velocity ([3]; 1.0 µmol/L): 19.5 %/min; Sc area under the curve of stable clot formation ([3]; 1.0 µmol/L): 125.5 %*min; Sf area under the fibrinolysis curve ([3]; 1.0 µmol/L): 105.1 %*min; Sr area under the clot formation curve ([3]; 1.0 µmol/L): 45.1 %*min; Tc clot stabilization time ([3]; 1.0 µmol/L): 124.7 s; Tf plasma clotting time ([3]; 1.0 µmol/L): 65.9 s; Tl fibrinolysis time ([3]; 1.0 µmol/L): 175.0 s; Tt thrombin time ([3]; 1.0 µmol/L): 21.6 s; CLAUC overall potential for clot formation and fibrinolysis ([3]; 5.0 µmol/L): 343.6 %*min; Fmax maximum clotting ([3]; 5.0 µmol/L): 70.7%; Fvo initial plasma clotting velocity ([3]; 5.0 µmol/L): 157.7 %/min; Lmax maximum lysis ([3]; 5.0 µmol/L): 70.5%; Lvo initial clot fibrinolysis velocity ([3]; 5.0 µmol/L): 21.9 %/min; Sc area under the curve of stable clot formation ([3]; 5.0 µmol/L): 169.8 %*min; Sf area under the fibrinolysis curve ([3]; 5.0 µmol/L): 129.1 %*min; Sr area under the clot formation curve ([3]; 5.0 µmol/L): 44.7 %*min; Tc clot stabilization time ([3]; 5.0 µmol/L): 146.7 s; Tf plasma clotting time ([3]; 5.0 µmol/L): 59.4 s; Tl fibrinolysis time ([3]; 5.0 µmol/L): 199.0 s; Tt thrombin time ([3]; 5.0 µmol/L): 19.2 s; CLAUC overall potential for clot formation and fibrinolysis ([3]; 10.0 µmol/L): 284.4 %*min; Fmax maximum clotting ([3]; 10.0 µmol/L): 61.4%; Fvo initial plasma clotting velocity ([3]; 10.0 µmol/L): 121.6 %/min; Lmax maximum lysis ([3]; 10.0 µmol/L): 60.2%; Lvo initial clot fibrinolysis velocity ([3]; 10.0 µmol/L): 19.5 %/min; Sc area under the curve of stable clot formation ([3]; 10.0 µmol/L): 126.7 %*min; Sf area under the fibrinolysis curve ([3]; 10.0 µmol/L): 117.2 %*min; Sr area under the clot formation curve ([3]; 10.0 µmol/L): 40.5 %*min; Tc clot stabilization time ([3]; 10.0 µmol/L): 126.7 s; Tf plasma clotting time ([3]; 10.0 µmol/L): 62.3 s; Tl fibrinolysis time ([3]; 10.0 µmol/L): 180.3 s; Tt thrombin time ([3]; 10.0 µmol/L): 23.3 s; CLAUC overall potential for clot formation and fibrinolysis ([3]; 50.0 µmol/L): 280.7 %*min; Fmax maximum clotting ([3]; 50.0 µmol/L): 63.8%; Fvo initial plasma clotting velocity ([3]; 50.0 µmol/L): 129.0 %/min; Lmax maximum lysis ([3]; 50.0 µmol/L): 61.8%; Lvo initial clot fibrinolysis velocity ([3]; 50.0 µmol/L): 22.0 %/min; Sc area under the curve of stable clot formation ([3]; 50.0 µmol/L): 123.25 %*min; Sf area under the fibrinolysis curve ([3]; 50.0 µmol/L): 118.6 %*min; Sr area under the clot formation curve ([3]; 50.0 µmol/L): 38.9 %*min; Tc clot stabilization time ([3]; 50.0 µmol/L): 119.3 s; Tf plasma clotting time ([3]; 50.0 µmol/L): 56.9 s; Tl fibrinolysis time ([3]; 50.0 µmol/L): 164.7 s; Tt thrombin time ([3]; 50.0 µmol/L): 22.5 s; CLAUC overall potential for clot formation and fibrinolysis ([3]; 100.0 µmol/L): 318.6 %*min; Fmax maximum clotting ([3]; 100.0 µmol/L): 68.6%; Fvo initial plasma clotting velocity ([3]; 100.0 µmol/L): 124.9 %/min; Lmax maximum lysis ([3]; 100.0 µmol/L): 67.2%; Lvo initial clot fibrinolysis velocity ([3]; 100.0 µmol/L): 29.6 %/min; Sc area under the curve of stable clot formation ([3]; 100.0 µmol/L): 146.3 %*min; Sf area under the fibrinolysis curve ([3]; 100.0 µmol/L): 131.8 %*min; Sr area under the clot formation curve ([3]; 100.0 µmol/L): 40.4 %*min; Tc clot stabilization time ([3]; 100.0 µmol/L): 131.3 s; Tf plasma clotting time ([3]; 100.0 µmol/L): 59.2 s; Tl fibrinolysis time ([3]; 100.0 µmol/L): 188.7 s; Tt thrombin time ([3]; 100.0 µmol/L): 22.4 s

Question: For Clc1ccc(COC(Cn2ccnc2)c2ccc(Cl)cc2Cl)c(Cl)c1 (stereo not drawn) [MCZ, miconazole], which “effect on A375 cell viability” value [2] is on record?
Answer: dose-dependent reduction
